Measurements published in patent US20260091026A1, “METHODS OF TREATING INFLAMMATORY DISEASES” (INTERLINE THERAPEUTICS, INC., priority 2023, published 2026).
Read-outs that look alike come from different tables or passages of the source.

How the values were obtained:
[1] = biological target: T1, RIPK2 (KD)/XIAP (BIR2) (Homo sapiens, UniProt O43353); assay: RIPK2-XIAP binding competition PPI assay (TR-FRET); conditions: for Emax / PPI Amax: 50 nM of GSK583 = -100% activity; for Emax: read-out: PPI Amax; for IC50: GST-RIPK2 / His-XIAP (BIR2)-avi, 120 min at 23° C.
T1 construct: made in house; host or cells: baculovirus-infected Sf9 cells
T1 sequence (O43353 1-310): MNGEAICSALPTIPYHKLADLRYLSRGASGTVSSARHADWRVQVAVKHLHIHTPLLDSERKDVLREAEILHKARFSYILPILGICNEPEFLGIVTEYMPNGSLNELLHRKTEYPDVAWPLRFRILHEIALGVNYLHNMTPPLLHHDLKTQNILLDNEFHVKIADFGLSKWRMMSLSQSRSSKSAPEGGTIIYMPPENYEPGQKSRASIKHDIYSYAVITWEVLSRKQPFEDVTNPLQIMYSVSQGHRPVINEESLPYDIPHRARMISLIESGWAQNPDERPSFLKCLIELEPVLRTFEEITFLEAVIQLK
Description: The ability of selected compounds of Formula (I) to inhibit the binding of an His-XIAP (BIR2)-avi fusion protein to a GST-RIPK2 fusion protein was quantified employing the TR-FRET-based competition assay as described in the following paragraphs.
Recombinant fusion protein of N-terminal Glutathione-S-Transferase (GST) and a fragment of human RIPK2 (amino acids 1-310 of accession number 043353), expressed in baculovirus infected Sf9 cells, purified via glutathione affinity chromatography, was used as GST-RIPK2 fusion protein. Recombinant fusion protein of N-terminal 6xHistidine (His), a fragment of human XIAP (amino acids 152-231 of accession number P98170), and C-terminal avi tag, expressed in baculovirus infected Sf9 cells, purified via Nickel NTA affinity chromatography, was used as the His-XIAP (BIR2)-avi fusion protein.
For the assay, a working solution of 1 nM GST-RIPK2, 25 nM His-XIAP (BIR2)-avi, 6 nM Anti-His-XL665 […] (Revvity Catalogue No. 61HISXLB), and 0.5 nM Anti-GST-Tb(Revvity Catalogue No. 61GSTTLB) in 25 mM Tris-HCl 7.5, 0.5 mM ethylene glycol-bis(2-aminoethylether)-N,N,N′,N′-tetraacetic acid (EGTA), 10 mM magnesium chloride (MgCl2), 2.5 mM dithiothreitol (DTT), 0.01% (w/v) bovine serum albumin (BSA), 0.005% (w/v) Pluronic F-127 (Sigma), 0.5 mM sodium ortho-vanadate, 5 mM-Glycerophosphate disodium salt hydrate (BGP) was prepared. 50 nL of a 100-fold concentrated solution of each test compound in DMSO was dispensed via acoustic dispensing into a white low volume 384-well microtiter plate (Perkin Elmer Catalogue No. 6008280). Subsequently, 5 μL of the assay working solution were added.
The resulting mixture was incubated 120 min at 23° C. Subsequently, the amount of complex formed by the GST-RIPK2, XIAP (BIR2)-avi, Anti-His-XL665, and Anti-GST-Tb was evaluated by measurement of the resonance energy transfer from the Tb-cryptate to the XL665. Therefore, the fluorescence emissions at 520 nm and 665 nm after excitation at 337 nm were measured in a TR-FRET reader, e.g. a Pherastar FS(BMG Labtechnologies, Offenburg, Germany) or an Envision (PerkinElmer). The ratio of the emissions at 665 nm and at 520 nm was taken as the measure of the amount of the complex. The data were normalized (assay reaction without inhibitor=0% activity, 50 nM of GSK583=−100% activity).

[2] = system: THP1-Dual cells, NF-κB pathway (SEAP); assay: THP-1 Dual cell SEAP assay (L18-MDP stimulated); assay type: cell-based; conditions: 10 ng/mL L18-MDP, 20-24 h, SEAP readout, read-out: IFNγ THP1 IC50
Experimental: THP1-Dual™ cells (InvivoGen Cat #thpd-nfis) allow simultaneous assessment of the NF-κB pathway, by monitoring the activity of secreted embryonic alkaline phosphatase (SEAP) as well as the IRF pathway, by assessing the activity of a secreted luciferase (Lucia). Cells were cultured according to manufacturers' recommendations. For the assay, cell concentration was adjusted to 7.14×10^5 cells/mL in assay media (RPMI 1640, 2 mM L-Glutamine, 25 mM HEPES, 10% fetal bovine serum (heat-inactivated for 30 min at 56° C.), Pen-Strep (100 U/mL)) and 35 μL of cell suspension (˜25,000 cells) per well were added to a flat bottom 384-well plate (white opaque). Plate was centrifuged at 300 g for 2 min, compounds were added in serial dilution series according to the plate layout (volumes ˜500 nL-0.0152 nL) and plate was incubated at 37° C. in 5% CO2 for 30 min. Using assay media, a L18-MDP stock solution, that results in a final concentration of 10 ng/mL L18-MDP in each well when adding 15 μL to each well, was prepared. 15 μL of L18-MDP stock solution was added to each well, while 15 μL of assay media was added to the negative control wells. Plates were subsequently incubated at 37° C. in 5% CO2 overnight (20-24 h).
For the SEAP assay: without disturbing the cells at the bottom of the well, 15 μL supernatant was transferred to a clear 384-well flat bottom plate and 35 μL QUANTI-Blue Solution per well was added. Following a 2 h incubation at 37° C., the optical density (OD) was measured at 620-655 nm using a microplate reader (PheraStar FS microplate reader with protocol for OD 620-655 nm).
Values of media-only wells were subtracted and % inhibition for each compound concentration relative to the DMSO/L18-MDP-treated controls was calculated. Inhibition values+/−SD were fitted by non-linear regression using Prism software (GraphPad PRISM Software) to calculate IC50 values.

Compound | Emax [1] [%] | IC50 [1] [nM] | IC50 ([2]; Homo sapiens) [nM] | PPI Amax [1] | IC50 [2] [nM]
COc1cc2ncc(-c3cc(C(=O)N[C@@H]4C[C@@H]4c4ccccc4)n(C)n3)n2cc1S(=O)(=O)C(C)(C)C (single isomer, unassigned) [Example 30, cis-(1S,2S) or (1R,2R) 3-(6-(tert-butylsulfonyl)-7-methoxyimidazo[1,2-a]pyridin-3-yl)-1-methyl-N-(2-phenylcyclopropyl)-1H-pyrazole-5-carboxamide] | 30 to 55 | > 1000 | > 2500 |  | 
COc1cc2ncc(-c3cc(C(=O)N[C@@H]4C[C@@H]4c4ccccc4)n(C)n3)n2cc1S(=O)(=O)C(C)(C)C (single isomer, unassigned) [Example 31, cis-(1R,2R) or (1S,2S) 3-(6-(tert-butylsulfonyl)-7-methoxyimidazo[1,2-a]pyridin-3-yl)-1-methyl-N-(2-phenylcyclopropyl)-1H-pyrazole-5-carboxamide] |  | > 1000 |  | D (Amax of ≤30%) | > 2500
COc1cc2ncc(-c3cc(C(=O)N[C@@H]4C[C@H]4c4ccccc4)n(C)n3)n2cc1S(=O)(=O)C(C)(C)C (single isomer, unassigned) [Example 33, trans-(1R,2S) or (1S,2R) 3-(6-(tert-butylsulfonyl)-7-methoxyimidazo[1,2-a]pyridin-3-yl)-1-methyl-N-(2-phenylcyclopropyl)-1H-pyrazole-5-carboxamide] | ≥ 80 | 100 to 1000 | > 2500 |  | 
COc1cc2ncc(-c3cc(C(=O)N[C@@H]4C[C@H]4c4ccccc4)n(C)n3)n2cc1S(=O)(=O)C(C)(C)C (single isomer, unassigned) [Example 34, trans-(1S,2R) or (1R,2S) 3-(6-(tert-butylsulfonyl)-7-methoxyimidazo[1,2-a]pyridin-3-yl)-1-methyl-N-(2-phenylcyclopropyl)-1H-pyrazole-5-carboxamide] |  | > 1000 |  | A (Amax of ≥80%) | > 2500
COc1cc2ncc(-c3cc(C(=O)Nc4ccccc4)n(C)n3)n2cc1S(=O)(=O)C(C)(C)C [Example 7, 3-(6-(tert-butylsulfonyl)-7-methoxyimidazo[1,2-a]pyridin-3-yl)-1-methyl-N-phenyl-1H-pyrazole-5-carboxamide] | ≥ 80 | > 1000 | > 2500 |  | 
COc1cc2ncc(-c3cc(C(=O)N[C@@H](C)c4ccccc4)n(C)n3)n2cc1S(=O)(=O)C(C)(C)C [Example 8, (S)-3-(6-(tert-butylsulfonyl)-7-methoxyimidazo[1,2-a]pyridin-3-yl)-1-methyl-N-(1-phenylethyl)-1H-pyrazole-5-carboxamide] | ≥ 80 | > 1000 | > 2500 |  | 
COc1cc2ncc(-c3cc(C(=O)N[C@H](C)c4ccccc4)n(C)n3)n2cc1S(=O)(=O)C(C)(C)C [Example 9, (R)-3-(6-(tert-butylsulfonyl)-7-methoxyimidazo[1,2-a]pyridin-3-yl)-1-methyl-N-(1-phenylethyl)-1H-pyrazole-5-carboxamide] | ≥ 80 | 10 to 100 | < 100 |  | 
COc1cc2ncc(-c3cc(C(=O)N[C@H](C)c4ccccc4F)n(C)n3)n2cc1S(=O)(=O)C(C)(C)C [Example 10, (R)-3-(6-(tert-butylsulfonyl)-7-methoxyimidazo[1,2-a]pyridin-3-yl)-N-(1-(2-fluorophenyl)ethyl)-1-methyl-1H-pyrazole-5-carboxamide] | ≥ 80 | 10 to 100 | 100 to 500 |  | 
COc1cc2ncc(-c3cc(C(=O)N[C@H](CO)c4ccccc4)n(C)n3)n2cc1S(=O)(=O)C(C)(C)C [Example 11, (S)-3-(6-(tert-butylsulfonyl)-7-methoxyimidazo[1,2-a]pyridin-3-yl)-N-(2-hydroxy-1-phenylethyl)-1-methyl-1H-pyrazole-5-carboxamide] | ≤ 30 | > 1000 | > 2500 |  | 
COc1cc2ncc(-c3cc(C(=O)N[C@H](C)c4ccc(F)cc4)n(C)n3)n2cc1S(=O)(=O)C(C)(C)C [Example 12, (R)-3-(6-(tert-butylsulfonyl)-7-methoxyimidazo[1,2-a]pyridin-3-yl)-N-(1-(4-fluorophenyl)ethyl)-1-methyl-1H-pyrazole-5-carboxamide] | ≥ 80 | 100 to 1000 | 500 to 2500 |  | 
COc1cc2ncc(-c3cc(C(=O)N[C@H](C)c4cccc(F)c4)n(C)n3)n2cc1S(=O)(=O)C(C)(C)C [Example 13, (R)-3-(6-(tert-butylsulfonyl)-7-methoxyimidazo[1,2-a]pyridin-3-yl)-N-(1-(3-fluorophenyl)ethyl)-1-methyl-1H-pyrazole-5-carboxamide] | ≥ 80 | 100 to 1000 | > 2500 |  | 
COc1cc2ncc(-c3cc(C(=O)NCc4n[nH]c5ccccc45)n(C)n3)n2cc1S(=O)(=O)C(C)(C)C [Example 14, N-((1H-indazol-3-yl)methyl)-3-(6-(tert-butylsulfonyl)-7-methoxyimidazo[1,2-a]pyridin-3-yl)-1-methyl-1H-pyrazole-5-carboxamide] | ≥ 80 | < 10 | 100 to 500 |  | 
COc1cc2ncc(-c3cc(C(=O)NCc4nn(C)c5ccccc45)n(C)n3)n2cc1S(=O)(=O)C(C)(C)C [Example 15, 3-(6-(tert-butylsulfonyl)-7-methoxyimidazo[1,2-a]pyridin-3-yl)-1-methyl-N-((1-methyl-1H-indazol-3-yl)methyl)-1H-pyrazole-5-carboxamide] | 55 to 80 | 100 to 1000 | > 2500 |  | 
COc1cc2ncc(-c3cc(C(=O)NCc4c5ccccc5nn4C)n(C)n3)n2cc1S(=O)(=O)C(C)(C)C [Example 16, 3-(6-(tert-butylsulfonyl)-7-methoxyimidazo[1,2-a]pyridin-3-yl)-1-methyl-N-((2-methyl-2H-indazol-3-yl)methyl)-1H-pyrazole-5-carboxamide] | 55 to 80 | > 1000 | > 2500 |  | 
COc1cc2ncc(-c3cc(C(=O)NCc4cnn5ccccc45)n(C)n3)n2cc1S(=O)(=O)C(C)(C)C [Example 17, 3-(6-(tert-butylsulfonyl)-7-methoxyimidazo[1,2-a]pyridin-3-yl)-1-methyl-N-(pyrazolo[1,5-a]pyridin-3-ylmethyl)-1H-pyrazole-5-carboxamide] | 55 to 80 | > 1000 | > 2500 |  | 
COc1cc2ncc(-c3cc(C(=O)NCc4n[nH]c5cccnc45)n(C)n3)n2cc1S(=O)(=O)C(C)(C)C [Example 18, N-((1H-pyrazolo[4,3-b]pyridin-3-yl)methyl)-3-(6-(tert-butylsulfonyl)-7-methoxyimidazo[1,2-a]pyridin-3-yl)-1-methyl-1H-pyrazole-5-carboxamide] | ≥ 80 | 10 to 100 | 500 to 2500 |  | 
